Patent US8124793B2, “Derivatives of ethylene methanedisulfonate as cancer chemotherapeutic agents” (priority 2007, dated 2012)

Tests used:
Format in all cases: cell-based
CCRF-CEM = test: NCI screen, growth of human tumor cells: Leukemia CCRF-CEM; conditions: for % Growth: CCRF-CEM
Summary of the method: (§1)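 Growth of human tumor cells, expressed as percent, was determined in the NCI screen. Test data list the cancer type and the molar concentration applied.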

MDA-MB-435 = test: NCI screen, growth of human tumor cells: Breast Cancer MDA-MB-435
Summary of the method: as §1

MOLT-4 = test: NCI screen, growth of human tumor cells: Leukemia MOLT-4
Summary of the method: as §1

MCF 7 = test: NCI screen, growth of human tumor cells: Breast Cancer MCF 7
Summary of the method: as §1

HOP-62 = test: NCI screen, growth of human tumor cells: Non-Small Cell Lung HOP-62; conditions: HOP-62, 10^−4 molar
Summary of the method: as §1

HCT-15 = test: NCI screen, growth of human tumor cells: Colon Cancer HCT-15; conditions: HCT-15 (Colon Cancer), 10^−4 molar
Summary of the method: as §1

HT29 = test: NCI screen, growth of human tumor cells: Colon Cancer HT29
Summary of the method: as §1

SK-MEL-5 = test: NCI screen, growth of human tumor cells: Melanoma SK-MEL-5
Summary of the method: as §1

NCI-H226 = test: NCI screen, growth of human tumor cells: Non-Small Cell Lung NCI-H226
Summary of the method: as §1

HCC-2998 = test: NCI screen, growth of human tumor cells: HCC-2998 (listed under Non-Small Cell Lung)
Summary of the method: as §1

RPMI-8226 = test: NCI screen, growth of human tumor cells: Leukemia RPMI-8226
Summary of the method: as §1

BT-549 = test: NCI screen, growth of human tumor cells: Breast Cancer BT-549
Summary of the method: as §1

K562 = test: NCI screen, growth of human tumor cells: Leukemia K562
Summary of the method: as §1

AS49/ATCC = test: NCI screen, growth of human tumor cells: Non-Small Cell Lung AS49/ATCC; conditions: A549/ATCC, 10^−4 molar
Summary of the method: as §1

CAKI-1 = test: NCI screen, growth of human tumor cells: Renal Cancer CAKI-1
Summary of the method: as §1

DU-145 = test: NCI screen, growth of human tumor cells: Prostate Cancer DU-145; conditions: DV-145, 10^−4 molar
Summary of the method: as §1

SN12C = test: NCI screen, growth of human tumor cells: Renal Cancer SN12C; conditions: SN12C, 10^−4 molar
Summary of the method: as §1

786-0 = test: NCI screen, growth of human tumor cells: Renal Cancer 786-0; conditions: 786-0, 10^−4 molar
Summary of the method: as §1

SNB-19 = test: NCI screen, growth of human tumor cells: CNS Cancer SNB-19
Summary of the method: as §1

OVCAR-3 = test: NCI screen, growth of human tumor cells: Ovarian Cancer OVCAR-3; conditions: OVCAR-3, 10^−4 molar
Summary of the method: as §1

U-251 = test: NCI screen, growth of human tumor cells: CNS Cancer U-251
Summary of the method: as §1

SK-MEL-2 = test: NCI screen, growth of human tumor cells: Melanoma SK-MEL-2
Summary of the method: as §1

MALME-3M = test: NCI screen, growth of human tumor cells: Melanoma MALME-3M; conditions: 10^−4 molar
Summary of the method: as §1

COLO205 = test: NCI screen, growth of human tumor cells: Colon Cancer COLO205
Summary of the method: as §1

OVCAR-5 = test: NCI screen, growth of human tumor cells: Ovarian Cancer OVCAR-5; conditions: OVCAR-5, 10^−4 molar
Summary of the method: as §1

LOXIMVI = test: NCI screen, growth of human tumor cells: Melanoma LOXIMVI; conditions: for % Growth: LOXIMVI
Summary of the method: as §1

KM12 = test: NCI screen, growth of human tumor cells: Colon Cancer KM12; conditions: KM12, 10^−4 molar
Summary of the method: as §1

TK-10 = test: NCI screen, growth of human tumor cells: Renal Cancer TK-10; conditions: TK-10, 10^−4 molar
Summary of the method: as §1

UO-31 = test: NCI screen, growth of human tumor cells: Renal Cancer UO-31; conditions: UO-31, 10^−4 molar
Summary of the method: as §1

ACHN = test: NCI screen, growth of human tumor cells: Renal Cancer ACHN; conditions: ACHN, 10^−4 molar
Summary of the method: as §1

HCT-116 = test: NCI screen, growth of human tumor cells: Colon Cancer HCT-116
Summary of the method: as §1

UACC-257 = test: NCI screen, growth of human tumor cells: Melanoma UACC-257; conditions: UACC-257, 10^−4 molar
Summary of the method: as §1

SF-268 = test: NCI screen, growth of human tumor cells: CNS Cancer SF-268; conditions: SF-268 (CNS Cancer), 10^−4 molar
Summary of the method: as §1

NCI-H322M = test: NCI screen, growth of human tumor cells: Non-Small Cell Lung NCI-H322M; conditions: NCI-H322M, 10^−4 molar
Summary of the method: as §1

SF-539 = test: NCI screen, growth of human tumor cells: CNS Cancer SF-539; conditions: SF-539 (CNS Cancer), 10^−4 molar
Summary of the method: as §1

NCI-H522 = test: NCI screen, growth of human tumor cells: Non-Small Cell Lung NCI-H522; conditions: NCI-H522, 10^−4 molar
Summary of the method: as §1

UACC-62 = test: NCI screen, growth of human tumor cells: Melanoma UACC-62; conditions: UACC-62, 10^−4 molar
Summary of the method: as §1

SNB-75 = test: NCI screen, growth of human tumor cells: CNS Cancer SNB-75; conditions: SNB-75, 10^−4 molar
Summary of the method: as §1

Cc1ccc2ccccc2c1CC1S(=O)(=O)OCCOS1(=O)=O [NSC 679043, ethylene 2-methyl-1-naphyl-1,1-ethanedisulfonate]
% Growth (CCRF-CEM; 10^−4 molar): −49% | % Growth (CCRF-CEM; 10^−5 molar): 37% | % Growth (MDA-MB-435; MDA-MB-435, 10^−4 molar): −90% | % Growth (MDA-MB-435; MDA-MB-435, 10^−5 molar): 47% | % Growth (MOLT-4; MOLT-4, 10^−4 molar): −46% | % Growth (MOLT-4; MOLT-4, 10^−5 molar): 36% | % Growth (MCF 7; MCF7, 10^−4 molar): −78% | % Growth (MCF 7; MCF7, 10^−5 molar): 45% | % Growth (HOP-62): −77% | percent of growth of human tumor cells (HCT-15): −49% | % Growth (HT29; HT-29, 10^−4 molar): −95% | % Growth (HT29; HT-29, 10^−5 molar): 57% | % Growth (SK-MEL-5; SK-MEL-5, 10^−4 molar): −91% | % Growth (NCI-H226; NCI-H226, 10^−4 molar): −63% | % Growth (NCI-H226; NCI-H226, 10^−5 molar): 49% | % Growth (HCC-2998; HCC-2998, 10^−4 molar): −88% | % Growth (HCC-2998; HCC-2998, 10^−5 molar): 22% | % Growth (RPMI-8226; RPMI-8226, 10^−4 molar): −54% | % Growth (RPMI-8226; RPMI-8226, 10^−5 molar): 56% | % Growth (BT-549; BT-549, 10^−4 molar): −82% | % Growth (BT-549; BT-549, 10^−5 molar): 57% | % Growth (K562; K562, 10^−4 molar): −42% | % Growth (K562; K562, 10^−5 molar): 48% | % Growth (AS49/ATCC): −77% | % Growth (CAKI-1; CAKI-1, 10^−4 molar): −100% | % Growth (DU-145): −100% | % Growth (SN12C): −85% | % Growth (786-0): −97% | % Growth (SNB-19; SNB-19, 10^−4 molar): −95% | % Growth (OVCAR-3): −100% | % Growth (U-251; U251, 10^−4 molar): −96% | percent of growth of human tumor cells (SK-MEL-2; SK-MEL-2 (Melanoma), 10^−4 molar): −59% | % Growth (MALME-3M; MALME-3M): −88% | % Growth (COLO205; COLO205, 10^−4 molar): −98% | % Growth (COLO205; COLO205, 10^−5 molar): −27% | % Growth (OVCAR-5): −98% | % Growth (LOXIMVI; 10^−4 molar): −84% | % Growth (LOXIMVI; 10^−5 molar): 45% | % Growth (KM12): −69% | % Growth (TK-10): −93% | % Growth (UO-31): −100% | % Growth (ACHN): −90% | % Growth (HCT-116; HCT-116, 10^−4 molar): −99% | % Growth (HCT-116; HCT-116, 10^−5 molar): 15%

CC1(C)OCC(COC(=O)C(=O)C2(Cc3ccc4c(c3)C(=O)c3ccccc3C4=O)S(=O)(=O)OCCOS2(=O)=O)O1 (centres unmarked) [NSC 737276]
% Growth (UACC-257): −76% | percent of growth of human tumor cells (CCRF-CEM; CCRF-CEM (Leukemia), 10^−4 molar): −38% | percent of growth of human tumor cells (SF-268): −40% | percent of growth of human tumor cells (MOLT-4; MOLT-4 (Leukemia), 10^−4 molar): −26% | percent of growth of human tumor cells (MCF 7; MCF 7 (Breast Cancer), 10^−4 molar): −59% | % Growth (NCI-H322M): −87% | % Growth (HOP-62): −84% | percent of growth of human tumor cells (SF-539): −43% | percent of growth of human tumor cells (HCT-15): −12% | % Growth (NCI-H522): −91% | percent of growth of human tumor cells (HT29; HT29 (Colon Cancer), 10^−4 molar): −25% | percent of growth of human tumor cells (SK-MEL-5; SK-MEL-5 (Melanoma), 10^−4 molar): −4% | percent of growth of human tumor cells (NCI-H226; NCI-H226 (Non-Small Cell Lung), 10^−4 molar): 10% | % Growth (HCC-2998; HCC-2998, 10^−4 molar): −96% | percent of growth of human tumor cells (RPMI-8226; RPMI-8226 (Leukemia), 10^−4 molar): −35% | percent of growth of human tumor cells (BT-549; BT-549 (Breast Cancer), 10^−4 molar): −49% | percent of growth of human tumor cells (K562; K562 (Leukemia), 10^−4 molar): 29% | percent of growth of human tumor cells (CAKI-1; CAKI-1 (Renal Cancer), 10^−4 molar): 15% | % Growth (DU-145): −81% | % Growth (SN12C): −64% | % Growth (786-0): −74% | percent of growth of human tumor cells (SNB-19; SNB-19 (CNS Cancer), 10^−4 molar): −59% | % Growth (OVCAR-3): −71% | % Growth (UACC-62): −91% | percent of growth of human tumor cells (U-251; U-251 (CNS Cancer), 10^−4 molar): −53% | % Growth (SK-MEL-2; SK-MEL-2, 10^−4 molar): −62% | percent of growth of human tumor cells (MALME-3M; MALME-3M (Melanoma)): −50% | % Growth (COLO205; COLO205, 10^−4 molar): −96% | % Growth (OVCAR-5): −89% | percent of growth of human tumor cells (LOXIMVI; LOXIMVI (Melanoma), 10^−4 molar): −48% | % Growth (SNB-75): −87% | % Growth (KM12): −74% | % Growth (TK-10): −73% | % Growth (UO-31): −81% | % Growth (ACHN): −82% | % Growth (HCT-116; HCT-116, 10^−4 molar): −86%
